Measured values: patent publication US20260183303A1, “PDK1 REGULATORY COMPOUND AND COMPOSITION CONTAINING THE SAME” (PROVIBIO CO., LTD., priority 2024, published 2026)
Counter-ions that a name gives are not always drawn.

What was measured:
[1] = tested on: T cells isolated from mouse spleens; assay: T cell proliferation inhibition (CFSE flow cytometry, anti-CD3/anti-CD28 activation); format: cell-based, C57BL/6 mice; conditions: mouse spleen T cells, CD3/CD28 activated, cultured three days
Procedure: To verify the T cell proliferation inhibitory effect of the compounds according to the present invention, the following experiment was performed based on flow cytometry analysis using carboxyfluorescein diacetate succinimidyl ester (CFSE), a fluorescent dye that binds to intracellular molecules via covalent bonds.
Spleens were extracted from 7-week-old C57BL/6 mice, ground, and then separated into single cells using a strainer ([…], SPL). Red blood cells were removed using ACK (Ammonium-Chloride-Potassium) lysis buffer to isolate white blood cells.
Finally, using a MACS Magnetic Stand and LS column, T cells were isolated from the spleen.
The T cells isolated from the spleen were resuspended in 1 mL of free medium (RPMI-1640+200 U/mL penicillin+200 μg/mL streptomycin), and 0.3 μL of CFSE (10 mM) was added. The mixture was incubated at 37° C. for 5 minutes.
Free medium (10 mL) was added to stop the reaction, and the cells were centrifuged to obtain the cell pellet.
RPMI 1640 medium containing 10% FBS, 100 U/mL penicillin, 100 μg/mL streptomycin, and resuspended the cells. The cells were then seeded into a 96-well plate at a density of 2×10^5 cells per well and activated with CD3 and CD28 antibodies ([…]) to activate T cells.
The compound diluted in DMSO was added at concentrations of 10 nM, 100 nM, 1 μM, […], 30 μM, and 50 µM, with three wells per concentration, and cultured at 37° C. and 5% CO2 for three days. The cells were then analyzed using a FACS Canto instrument.
The proliferation inhibition rate (%) was calculated using the following formula: […]

[2] = tested on: Human B Lymphocyte cell line, SU-DHL-8; assay: Relative cell viability (CCK-8), SU-DHL-8; format: cell-based; conditions: for Relative cell viability (%): 48 hours, untreated cells (DMSO) = 100%
Procedure: Human-derived B lymphoma cell line SU-DHL-8 (Cat. #CRL-2961) purchased from ATCC was cultured in RPMI-1640 medium containing […], 100 U/mL penicillin, and 100 μg/mL streptomycin.
The cell culture medium was then harvested, centrifuged at 1,300 rpm for 5 minutes, and the supernatant was removed. The cells were resuspended in the same medium and dispensed into a 96-well plate (Costar 96-well cell culture plate, Corning) at 90 μL per well, resulting in the conditions specified in Table 5.
Then, 10 μL of CCK-8 was added to each well, and the plates were incubated again at 37° C. in a 5% CO2 incubator for 4 hours.
In other words, when the survival rate of untreated cells (DMSO) is set at 100%, the relative cell survival rate in each group treated with the drug at different concentrations is indicated.

CC1CNCCN1CCCCCCCCCCCCNC(=O)c1cccnc1N (centres unmarked) [Compound 35, 2-Amino-N-(12-(2-methylpiperazin-1-yl)dodecyl) nicotinamide]
Proliferation inhibition rate (%) ([1]; 100 nM): 100.00% | Proliferation inhibition rate (%) ([1]; 1 μM): 100.00% | Proliferation inhibition rate (%) ([1]; 10 μM): 100.00% | Proliferation inhibition rate (%) ([1]; 30 μM): 100.00% | Proliferation inhibition rate (%) ([1]; 50 μM): 100.00% | Relative cell viability (%) ([2]; SU-DHL-8, 10 μM): 0.64% | Relative cell viability (%) ([2]; SU-DHL-8, 30 μM): 0.42%

Nc1ncccc1C(=O)NCCCCCCCCCCCCN1CCN(Cc2ccc(F)cc2)CC1 [Compound 27, 2-Amino-N-(12-(4-(4-fluorobenzyl)piperazin-1-yl)dodecyl) nicotinamide]
Proliferation inhibition rate (%) ([1]; 10 nM): 2.27% | Proliferation inhibition rate (%) ([1]; 100 nM): 83.33% | Proliferation inhibition rate (%) ([1]; 1 μM): 100.00% | Proliferation inhibition rate (%) ([1]; 10 μM): 100.00% | Proliferation inhibition rate (%) ([1]; 30 μM): 100.00% | Proliferation inhibition rate (%) ([1]; 50 μM): 100.00% | Relative cell viability (%) ([2]; SU-DHL-8, 1 μM): 6.24% | Relative cell viability (%) ([2]; SU-DHL-8, 10 μM): 4.97% | Relative cell viability (%) ([2]; SU-DHL-8, 30 μM): 2.03% | Relative cell viability (%) ([2]; SU-DHL-8, 50 μM): 0.56%

Cl.Nc1ncccc1C(=O)NCCCCCCCCCCCCN1CC[C@H](N)C1 [Compound 50, (S)-2-Amino-N-(12-(3-aminopyrrolidin-1-yl)dodecyl) nicotinamide hydrochloride]
Proliferation inhibition rate (%) ([1]; 100 nM): 100.00% | Proliferation inhibition rate (%) ([1]; 1 μM): 100.00% | Proliferation inhibition rate (%) ([1]; 10 μM): 100.00% | Proliferation inhibition rate (%) ([1]; 30 μM): 100.00% | Proliferation inhibition rate (%) ([1]; 50 μM): 100.00% | Relative cell viability (%) ([2]; SU-DHL-8, 1 μM): 9.20%

O=C(NCCCCCCCCCCCCN1CCNCC1)c1ccc(-c2ccccc2)o1 [Compound 90, 5-Phenyl-N-(12-(piperazin-1-yl)dodecyl)furan-2-carboxamide hydrochloride]
inhibition at 0.01 µM ([1]; Mus musculus, T-cell, 72 h, 10 nM, read-out: Proliferation inhibition rate (%)): -8.27% | inhibition at 0.1 µM ([1]; Mus musculus, T-cell, 72 h, 100 nM, read-out: Proliferation inhibition rate (%)): -2.03% | inhibition at 1 µM ([1]; Mus musculus, T-cell, 72 h, 1 μM, read-out: Proliferation inhibition rate (%)): 66.2% | inhibition at 10 µM ([1]; Mus musculus, T-cell, 72 h, 10 μM, read-out: Proliferation inhibition rate (%)): 100% | inhibition at 30 µM ([1]; Mus musculus, T-cell, 72 h, 30 μM, read-out: Proliferation inhibition rate (%)): 100% | inhibition at 50 µM ([1]; Mus musculus, T-cell, 72 h, 50 μM, read-out: Proliferation inhibition rate (%)): 100% | viability at 1 µM ([2]; Homo sapiens, SU-DHL-8, 48 h, read-out: Relative cell viability (%), SU-DHL-8, 1 μM, untreated cells (DMSO) = 100%): 7.19% | viability at 10 µM ([2]; Homo sapiens, SU-DHL-8, 48 h, read-out: Relative cell viability (%), SU-DHL-8, 10 μM, untreated cells (DMSO) = 100%): 5.94% | viability at 30 µM ([2]; Homo sapiens, SU-DHL-8, 48 h, read-out: Relative cell viability (%), SU-DHL-8, 30 μM, untreated cells (DMSO) = 100%): 2.48% | viability at 50 µM ([2]; Homo sapiens, SU-DHL-8, 48 h, read-out: Relative cell viability (%), SU-DHL-8, 50 μM, untreated cells (DMSO) = 100%): 1.94%

CN(C)CCN1CCN(CCCCCCCCCCCCNC(=O)c2cccnc2N)CC1 [Compound 33, 2-Amino-N-(12-(4-(2-(dimethylamino)ethyl)piperazin-1-yl)dodecyl) nicotinamide]
Proliferation inhibition rate (%) ([1]; 10 nM): −36.05% | Proliferation inhibition rate (%) ([1]; 100 nM): 100.00% | Proliferation inhibition rate (%) ([1]; 1 μM): 100.00% | Proliferation inhibition rate (%) ([1]; 10 μM): 100.00% | Proliferation inhibition rate (%) ([1]; 30 μM): 100.00% | Proliferation inhibition rate (%) ([1]; 50 μM): 100.00% | Relative cell viability (%) ([2]; SU-DHL-8, 10 μM): 4.32% | Relative cell viability (%) ([2]; SU-DHL-8, 30 μM): 3.35% | Relative cell viability (%) ([2]; SU-DHL-8, 50 μM): 2.66%

Cc1ccc(C2CCN(CCCCCCCCCCCCNC(=O)c3cccnc3N)CC2)cc1 [Compound 55, 2-Amino-N-(12-(4-(p-tolyl)piperidin-1-yl)dodecyl) nicotinamide]
Proliferation inhibition rate (%) ([1]; 100 nM): 100.00% | Proliferation inhibition rate (%) ([1]; 1 μM): 100.00% | Proliferation inhibition rate (%) ([1]; 10 μM): 100.00% | Proliferation inhibition rate (%) ([1]; 30 μM): 100.00% | Proliferation inhibition rate (%) ([1]; 50 μM): 100.00% | Relative cell viability (%) ([2]; SU-DHL-8, 30 μM): 1.10% | Relative cell viability (%) ([2]; SU-DHL-8, 50 μM): 0.97%

CC1CN(CCCCCCCCCCCCNC(=O)c2cccnc2N)CC(C)O1 (centres unmarked) [Compound 21, 2-Amino-N-(12-(2,6-dimethylmorpholino)dodecyl) nicotinamide]
Proliferation inhibition rate (%) ([1]; 100 nM): 100.00% | Proliferation inhibition rate (%) ([1]; 1 μM): 100.00% | Proliferation inhibition rate (%) ([1]; 10 μM): 100.00% | Proliferation inhibition rate (%) ([1]; 30 μM): 100.00% | Proliferation inhibition rate (%) ([1]; 50 μM): 100.00% | Relative cell viability (%) ([2]; SU-DHL-8, 30 μM): 3.70%

Cc1ccc(OC2CCN(CCCCCCCCCCCCNC(=O)c3cccnc3N)CC2)cc1 [Compound 51, 2-Amino-N-(12-(4-(p-tolyloxy)piperidin-1-yl)dodecyl) nicotinamide]
Proliferation inhibition rate (%) ([1]; 10 nM): 0.77% | Proliferation inhibition rate (%) ([1]; 1 μM): 100.00% | Proliferation inhibition rate (%) ([1]; 10 μM): 100.00% | Proliferation inhibition rate (%) ([1]; 30 μM): 100.00% | Proliferation inhibition rate (%) ([1]; 50 μM): 100.00% | Relative cell viability (%) ([2]; SU-DHL-8, 30 μM): 0.89% | Relative cell viability (%) ([2]; SU-DHL-8, 50 μM): 0.48%

CC1CCN(CCCCCCCCCCCCNC(=O)c2cccnc2N)C1 (centres unmarked) [Compound 24, 2-Amino-N-(12-(3-methylpyrrolidin-1-yl)dodecyl) nicotinamide]
Proliferation inhibition rate (%) ([1]; 100 nM): 100.00% | Proliferation inhibition rate (%) ([1]; 1 μM): 100.00% | Proliferation inhibition rate (%) ([1]; 10 μM): 100.00% | Proliferation inhibition rate (%) ([1]; 30 μM): 100.00% | Proliferation inhibition rate (%) ([1]; 50 μM): 100.00% | Relative cell viability (%) ([2]; SU-DHL-8, 30 μM): 0.62%
